Reference: article PMC7165133, “Functional expression and characterization of cinnamic acid 4-hydroxylase from the hornwort Anthoceros agrestis in Physcomitrella patens” (Plant Cell Reports, 2020)
Blank lines part the entries; values can stand above or below the molecule they belong to.

What was measured:
[1] = test system: T1, Physcomitrella patens NADPH:cytochrome P450 reductase(s) (CPR or POR), in Pp_WT; assay: HPLC of 4-coumaric acid formed (coupled C4H reaction), Michaelis-Menten fit; type: biochemical, Physcomitrium patens; conditions: 400 µM cinnamic acid, pH 7.0, 25 °C, 5 min; crude extract of untransformed moss; NADPH oxidised by CPR, read-out via C4H; read-out: apparent Km
T1 construct: native reductase(s), four putative CPR genes; crude protein extract of untransformed moss with its own C4Hs; with trans-cinnamate 4-monooxygenase; trans-cinnamate 4-monooxygenase

[2] = test system: T2, Physcomitrella patens NADPH:cytochrome P450 reductase(s) (CPR or POR), in Pp_AaC4H; assay: as above; type: biochemical, Physcomitrium patens; conditions: 400 µM cinnamic acid, pH 7.0, 25 °C, 5 min; crude extract; NADPH oxidised by CPR, read-out via C4H; read-out: apparent Km
T2 construct: native reductase(s) of the host moss, four putative CPR genes; crude protein extract of moss expressing C-terminally 6xHis-tagged AaC4H; with trans-cinnamate 4-monooxygenase (Anthoceros agrestis)

Pp_WT (PpC4Hs) = test system: T3, Pp_WT (PpC4Hs); assay: HPLC of 4-coumaric acid formed, Michaelis-Menten fit; type: biochemical, Physcomitrium patens; conditions: 5 mM NADPH, pH 7.0, 25 °C, 5 min; crude extract of untransformed moss; read-out: apparent Km
T3 construct: gene PpC4H_1; native, crude protein extract of untransformed moss; six putative C4H genes, only two named in the main text; with NADPH--cytochrome P450 reductase

[3] = substrate: O=C(O)/C=C/c1ccccc1; assay: cells, lysate or membranes; conditions: 5 mM NADPH, pH 7.0, 25 °C, 5 min, crude extract with endogenous PpC4H background

Km [1]: 92.3 ± 10.8 µM
Km [2]: 88 ± 19.5 µM
Molecule: NC(=O)C1=CN([C@@H]2O[C@H](COP(=O)(O)OP(=O)(O)OC[C@H]3O[C@@H](n4cnc5c(N)ncnc54)[C@H](OP(=O)(O)O)[C@@H]3O)[C@@H](O)[C@H]2O)C=CC1 [NADPH]

Km (Pp_WT (PpC4Hs)): 25.1 ± 8.9 µM
Molecule: O=C(O)/C=C/c1ccccc1 [t-cinnamic acid]

B1: Pp_AaC4H (AaC4H, CYP73A260) (Anthoceros agrestis) (protein)
chain: MASGETTLGSTNTMFLDALSILEALLATIAVLWLVKQVTSSRLKPPPGPLALPILGNWLQVGDDLNHRNLSDLAKKYGDIFLLRMGQRNVVVVSSPELAKEVLLTQGVEFGSRTRNVVFDIFTGKGQDMVFTVYGEHWRRMRRIMTVPFFTSKVVQQSRVAWEDETDRVIADLKTNPKYAAASTTGVVLRQRLQLLMYNTMYRLMFDRRFESEDDPLFVQLKALNGERSRLAQSFEYNYGDFIPVLRPLLRNYLKICQDIKDRRLALFKNHFLDERKKLLDTKRSQTAASTGKCAIDHILDAQKNGKINEDNVLYIVENINVAAIETTLWSMEWGLAELVNNPDIQQKVREELDHVLGKGTPLTEPDIQAGKLSYLAAVVKETLRLHMAIPLLVPHMNLHQARLGGYDIPAESKVLVNAWYLANNPALWKDPETFRPERFLEGDKGAEPNGTDFRFLPFGVGRRSCPGIILALPLLNLVLGRLVQSFLLTCPPGVEKLDLSEKGGQFSLHIAAHSNIVVKPRPDM
Km [3]: 17.3 ± 5.0 µM
